For this assay, the system named is Rat skeletal muscle-derived L6 myoblasts (differentiated into myotube cells). Nature of the assay: Evaluation of glycogen accumulation in L6. Type of assay: cell-based. Particulars: [14C] glycogen from D-[U-C14] glucose, 3 hours incubation, 100% = compound of Example 1 of WO/2011/058154 at 30 μM. How it is done:
The glycogen accumulation activity was evaluated in skeletal muscle cells according to the published article (ANALYTICAL BIOCHEMISTRY, Vol. 261: 159-163, 1998) by the following method. Rat skeletal muscle-derived L6 myoblasts (ATCC) were seeded in a 96-well collagen-coated plate (IWAKI, 4860-010) by using a growth medium (10% FBS-containing α-MEM medium (NACALAI TESQUE, INC., 21444-05)) under a condition of 4×10^4 cells/100 μL/well. After culturing under conditions of 37° C. and 5% CO2 overnight, the medium was replaced with a differentiation medium (2% FBS-containing α-MEM medium), followed by culturing for 3 days to differentiate the myoblasts into myotube cells. On the day of evaluation, the medium was replaced with a glucose-deprived medium (0.1% BSA-containing DMEM medium (Gibco, 11966)). After culturing for 4 hours, the medium was replaced with assay media (0.1% BSA-containing DMEM medium (NACALAI TESQUE, INC., 08456-65)) containing 0.6% DMSO and one of the test compounds at a concentration which was twice the final evaluation concentration at 15 μL/well. Further, an assay medium containing D-[U—C14] glucose (PerkinElmer Inc., NEC042V) at […] was added at 15 μL/well to adjust the final volume to 30 μL/well. Then, the cells were incubated under conditions of 37° C. and 5% CO2 for 3 hours. After the incubation, each medium was removed by suction with an aspirator, and the wells were rinsed with PBS at 200 μL/well twice. Then, 1 N NaOH was added at 50 μL/well, and the cells were lysed by incubation at 60° C. for 10 minutes. After the temperature of the lysed cells was returned to room temperature, each whole cell lysate and […] glycogen (Sigma-Aldrich, G8876) at 5 μL/well were added to a Multiscreen HTS (Millipore, MSFCN6B) to which 100% ethanol was added in advance at 100 μL/well, followed by incubation at 4° C. for 20 minutes. After the incubation, aspiration was conducted by using Multiscreen HTS Vacuum Manifold (Millipore), followed by rinse with 66% ethanol at 200 μL/well twice. After ethanol remaining on the filter was completely removed by drying, MicroScint40 (PerkinElmer Inc.) was added at 50 μL/well, the amount of [14C] glycogen was measured with TopCountNXT (PerkinElmer Inc.). The activity of each test compound was calculated by the following method. Specifically, the relative activity (%) was calculated as 100×(B−A)/(C−A), where A represents a value (cpm) measured for a well not containing the compound but containing only DMSO, B represents a value measured for a well containing the compound and DMSO, and C represents a value measured for a well containing the compound of Example 1 of WO/2011/058154 at a final concentration of 30 μM. EC50 representing the concentration of the compound at which an increase in activity by 50% was caused was calculated using XLfit (idbs).

Structures are written as SMILES.

On to `COC[C@@H]1CC[C@@H](C(=O)O)N1C(=O)c1cccc(COc2ccc(-c3cc(F)c(F)cc3SC)cc2)c1` [Example 62, (2S,5S)-1-[3-[[4-(4,5-Difluoro-2-methylsulfanyl-phenyl)phenoxy]methyl]benzoyl]-5-(methoxymethyl)pyrrolidine-2-carboxylic Acid], for which the EC50 is under 300 nM.

The values above are taken from patent publication US20160046592A1, “PHARMACEUTICAL COMPOSITION FOR THE TREATMENT OF DIABETES” (Ajinomoto Co., Inc., priority 2013, published 2016).
